Species on record: Rattus norvegicus
Experiment: DrugMatrix - Regimen: Daily Repeat
Assay type: toxicity, organism-based, Sprague-Dawley
Set-up: regimen Daily Repeat, gender Male, age 6-8 weeks
Settings: in vivo, po, route oral GAVAGE, dose level Low, […]; for ABSOLUTE BASOPHIL / BASOPHIL / EOSINOPHIL / ERYTHROCYTE COUNT / HEMATOCRIT / HEMOGLOBIN / LEUKOCYTE COUNT / LYMPHOCYTE / MEAN CORPUSCULAR HEMOGLOBIN / MEAN CORPUSCULAR HEMOGLOBIN CONCENTRATION / MEAN CORPUSCULAR VOLUME / MONOCYTE / NEUTROPHIL / PLATELET COUNT: tissue Blood
[1] = 30 mg/kg, 120 h, tissue Plasma, time 5 day
[2] = 35 mg/kg, 72 h, tissue Plasma, time 3 day
[3] = 35 mg/kg, 120 h, tissue Plasma, time 5 day

In the case of `Cc1ccc(-c2cc(C(F)(F)F)nn2-c2ccc(S(N)(=O)=O)cc2)cc1` [CELECOXIB], the ALBUMIN [1] is reported as 3.93 G/DL, the “ALKALINE PHOSPHATASE” value [1] is reported as 354.33 u/L and the “ASPARTATE AMINOTRANSFERASE” value [1] is reported as 82.67 u/L. The “BLOOD UREA NITROGEN” value [1] was 10.67 mg/dL, the “CARBON DIOXIDE” value [1] was 25 mmol/L and the CHLORIDE [1] was 101 MEQ/L. The CHOLESTEROL [1] was 56.33 mg/dL, the “CREATINE PHOSPHOKINASE” value [1] was 247 u/L and the CREATININE [1] was 0.12 mg/dL. The GLUCOSE [1] was 191.67 mg/dL, the “LACTATE DEHYDROGENASE” value [1] was 107 u/L and the LIPASE [1] was 6.33 u/L. For the same compound, the PHOSPHORUS [1] was 12.27 mg/dL, the POTASSIUM [1] was 5.29 MEQ/L and the SODIUM [1] was 142.9 MEQ/L. For the same compound, the “TOTAL BILIRUBIN” value [1] was 0.2 mg/dL, the “TOTAL PROTEIN” value [1] was 5.8 G/DL and the “URIC ACID” value [1] was 1.67 mg/dL. For the same compound, the ABSOLUTE BASOPHIL (35 mg/kg, 72 h, time 3 day) was 23.3 cells/µL, the BASOPHIL (35 mg/kg, 72 h, time 3 day) was 0.2% and the EOSINOPHIL (35 mg/kg, 72 h, time 3 day) was 0.57%. The “ERYTHROCYTE COUNT” value (35 mg/kg, 72 h, time 3 day) was 6.93 x10E6/uL, the HEMATOCRIT (35 mg/kg, 72 h, time 3 day) was 43.8% and the HEMOGLOBIN (35 mg/kg, 72 h, time 3 day) was 14.23 G/DL. The “LEUKOCYTE COUNT” value (35 mg/kg, 72 h, time 3 day) was 11.06 x10E3/uL, the LYMPHOCYTE (35 mg/kg, 72 h, time 3 day) was 78.9% and the “MEAN CORPUSCULAR HEMOGLOBIN” value (35 mg/kg, 72 h, time 3 day) was 20.57 pg. The “MEAN CORPUSCULAR HEMOGLOBIN CONCENTRATION” value (35 mg/kg, 72 h, time 3 day) was 32.53 G/DL, the “MEAN CORPUSCULAR VOLUME” value (35 mg/kg, 72 h, time 3 day) was 63.27 fL and the MONOCYTE (35 mg/kg, 72 h, time 3 day) was 2.2%. For the same compound, the NEUTROPHIL (35 mg/kg, 72 h, time 3 day) was 16.8%, the “PLATELET COUNT” value (35 mg/kg, 72 h, time 3 day) was 1233.67 x10E3/uL and the “ALANINE AMINOTRANSFERASE” value [2] was 48 u/L. For the same compound, the ALBUMIN [2] was 3.53 G/DL, the “ALKALINE PHOSPHATASE” value [2] was 409.67 u/L and the “ASPARTATE AMINOTRANSFERASE” value [2] was 65 u/L. The “BLOOD UREA NITROGEN” value [2] was 10.33 mg/dL, the CHLORIDE [2] was 105.67 MEQ/L and the CHOLESTEROL [2] was 68.67 mg/dL. For the same compound, the “CREATINE PHOSPHOKINASE” value [2] was 192.67 u/L, the CREATININE [2] was 0.37 mg/dL and the GLUCOSE [2] was 180 mg/dL. The PHOSPHORUS [2] was 12.47 mg/dL, the POTASSIUM [2] was 6.47 MEQ/L and the SODIUM [2] was 146.67 MEQ/L. The “TOTAL BILIRUBIN” value [2] was 0.43 mg/dL, the “TOTAL PROTEIN” value [2] was 5.63 G/DL and the ABSOLUTE BASOPHIL (35 mg/kg, 120 h, time 5 day) was 56.7 cells/µL. For the same compound, the BASOPHIL (35 mg/kg, 120 h, time 5 day) was 0.5%, the EOSINOPHIL (35 mg/kg, 120 h, time 5 day) was 0.17% and the “ERYTHROCYTE COUNT” value (35 mg/kg, 120 h, time 5 day) was 6.92 x10E6/uL. The HEMATOCRIT (35 mg/kg, 120 h, time 5 day) was 43.47%, the HEMOGLOBIN (35 mg/kg, 120 h, time 5 day) was 14.1 G/DL and the “LEUKOCYTE COUNT” value (35 mg/kg, 120 h, time 5 day) was 12.56 x10E3/uL. For the same compound, the LYMPHOCYTE (35 mg/kg, 120 h, time 5 day) was 82.3%, the “MEAN CORPUSCULAR HEMOGLOBIN” value (35 mg/kg, 120 h, time 5 day) was 20.4 pg and the “MEAN CORPUSCULAR HEMOGLOBIN CONCENTRATION” value (35 mg/kg, 120 h, time 5 day) was 32.43 G/DL. For the same compound, the “MEAN CORPUSCULAR VOLUME” value (35 mg/kg, 120 h, time 5 day) was 62.8 fL, the MONOCYTE (35 mg/kg, 120 h, time 5 day) was 1.9% and the NEUTROPHIL (35 mg/kg, 120 h, time 5 day) was 13.9%. The “PLATELET COUNT” value (35 mg/kg, 120 h, time 5 day) was 1178.33 x10E3/uL, the “ALANINE AMINOTRANSFERASE” value [3] was 42 u/L and the ALBUMIN [3] was 3.57 G/DL. For the same compound, the “ALKALINE PHOSPHATASE” value [3] was 324.67 u/L, the “ASPARTATE AMINOTRANSFERASE” value [3] was 63.67 u/L and the “BLOOD UREA NITROGEN” value [3] was 9.67 mg/dL. It also gave a CHLORIDE [3] of 103 MEQ/L.
